A short description of series [1]: Particle size and polydispersity index of lipid nanoparticles by dynamic light scattering. The settings on record: mean ± SD n=3. In kind it is physicochemical. How it is done:
The average hydrodynamic diameter and polydispersity index (PDI) of lipid nanoparticles were measured by dynamic light scattering (DLS) using a Malvern Zetasizer Nano ZS (Malvern Instruments, UK). All measurements were performed at 25° C. (n=3) by loading the lipid formulations (10 μL) into clear 96-well half-area polystyrene plates and diluting with 190 μL milli-Q water (Zhai et al. 2015).

The nature of series [2]: Mesophase (phase behaviour) of lipid nanoparticles by synchrotron SAXS. In kind it is physicochemical. As to the method:
Nanoparticle preparations (50 μL) were loaded into a transparent 96-well half-area polystyrene plate (Greiner Bio-One, Interpath Inc., VIC, Australia), and 50 μL of a suitable buffer solution (Citrate buffer) of specified pH was added to the plate. Phase behaviour of the nanoparticles was characterized at the SAXS/WAXS beamline of the Australian Synchrotron. The instrument used an X-ray wavelength of λ=1.128 Å (11.0 keV) with atypical flux of approximately […]. The sample to detector distance was chosen as 1.6 m which provided a q-range of 0.01-0.5 Å^−1 (scattering vector q=4π sin (θ/2)/λ, whereby θ is the scattering angle and λ is the wavelength). Sample scattering patterns were obtained at 25° C. and 37° C. following the procedure reported in the literature. The plate was placed in a holder perpendicular to the X-ray beam. The sample holder was moved by motors that were controlled by in-house ScatterBrain software for automatic SAXS screening. The sample temperature was controlled by a circulating water bath and kept at 25° C. or 37° C. Two-dimensional X-ray diffraction images were recorded on a Decris-Pilatus 1-M detector using ScatterBrain. The scattering images were integrated into one dimensional plots of intensity versus q for phase identification. The mesophase of the nanoparticles were assigned by matching the relative positions of the scattering peaks with known patterns for bicontinuous cubic, hexagonal, lamellar, and micellar cubic phase. The lattice parameter of the nanoparticles were calculated using the IDL-based software AXcess following the described method (Tran et al. 2018; Tran et al. 2016).
As detailed in Example 2 above, lipid nanoparticles described herein were prepared by doping the synthesised amino lipids into MO at 8 different compositions (RMO=0.05, 0.1, 0.15, 0.2, 0.25, 0.3, 0.4, 0.5) and dispersed with Pluronic F-127. Mesophase structure of the drug-free formulations was determined by SAXS over ten different pH values (a pH range of 2.5 to 10). FIG. 3 represents the SAXS partial phase diagrams of these nanoparticles at 25° C. The shape of an amphiphile can be characterised by the critical packing parameter (CPP). CPP=V/al, in which V is the effective volume of the amphiphile's hydrophobic tail, a is the effective cross-sectional area of the headgroup, and l is the effective length of the hydrocarbon chain. Lamellar phases (Lα) are typically observed with a zero interfacial curvature. For CPP values greater than 1, inverse phases, such as Q2 and H2 phases, are formed with increasing negative interfacial curvatures. The Q2 phase consists of lipid bilayers arranged in periodic 3D structures by twisting the bilayers into the shape of infinite periodic minimal surfaces. The H2 is a closed, extended micellar columnar structure, where there is no direct contact between the water inside and outside the H2 phase.

The conditions of series [3]: cited from earlier work.
A short description of series [4]: In vitro release of SN-38 by dynamic dialysis. In kind it is physicochemical. To be noted: pure-drug suspension, no lipid nanocarriers, within 60-90 min. As to the method:
In vitro release of SN-38 from the nanoparticles was evaluated using a dynamic dialysis method (Zambito, Y. International Journal of Pharmaceutics 2012, 434 (1), 28-34). The drug release rate was determined by placing the dispersion in a dialysis tube (Pur-A-Lyzer™ Maxi Dialysis tube molecular weight cut off 3500) and exhaustively dialysing.
After removing the free drug, the highest SN-38 loaded nanoparticles (1 mL formulation) were placed inside the dialysis tube. The dialysis tube was then immersed in a 1000 mL buffer maintained at 37±1.0° C. and stirred at 400 rpm. The analysis of the separation of free drug from drug-loaded formulations was carried out over a period of 420 min. Release experiments were performed in triplicate on three independently prepared SN-38 loaded formulations. For physiological pH, experiments were carried out by dialysing the formulations against 1000 mL of phosphate buffer (pH 7.0). Lower pH experiments were carried out by dialysing the formulations against 1000 mL of phosphate buffer adjusted to the required pH. The SN-38 that remained in the dialysis tube was quantitatively measured by the HPLC method. At predetermined time intervals (60 min, 120 min, 240 min and 420 min), 10 μL of the sample was withdrawn from the dialysis tube and diluted with 990 μL of the HPLC solvent. […]

Series [5] is described as follows: Drug loading and encapsulation efficiency of SN-38 nanoparticles by HPLC. In kind it is physicochemical. How it is done:
The amount of drug loading (DL) and encapsulation efficiency (EE) were determined for each of the four formulations of Example 5 using an HPLC method.
The nanoparticles containing the drug was centrifuged at 1000×g for 25 min at 25° C. to remove any un-encapsulated drug agglomerates. The supernatant was collected and vortexed for 10 min at 2500 rpm for uniform distribution.
For the SN-38 drug content assay, a UV variable detector at a wavelength of 265 nm and an Agilent Zorbax SB-C18 column (4.6 mm×250 mm, five μm) were utilised. The mobile phase consisted of a 50:50 (v/v) mixture of 25 mM NaH2PO4 (pH=3.1) buffer and acetonitrile. The mobile phase pH was maintained at 3.8 to ensure the analyte, SN-38, was in the closed lactone ring form during the assay. The sample for HPLC was prepared by diluting the nanoparticles 100 times with HPLC solvents (10 μL of the formulation with 990 μL 50/50 mixture of buffer and acetonitrile). During the assay, an aliquot of 20 μL of the sample was injected in duplicate into the HPLC system at a flow rate of 1 ml/min. The SN-38 content in the formulation was quantitatively determined using a standard curve prepared as outlined in previously published journal articles (Zhang et al. 2004; Escoriaza et al. 2000).
The following equation was used calculate the encapsulation efficiency (EE %) […]

Where [6] appears, read: MO nanoparticles with amino lipid at RMO 0.05, Pluronic F-127, 25° C.
Setting [7] is: MO nanoparticles with amino lipid at RMO 0.1, Pluronic F-127, 25° C.
Where [8] appears, read: MO nanoparticles with amino lipid at RMO 0.15, Pluronic F-127, 25° C.
[9] abbreviates: MO nanoparticles with amino lipid at RMO 0.2, Pluronic F-127, 25° C.
The mark [10] stands for this setting: MO nanoparticles with amino lipid at RMO 0.25, Pluronic F-127, 25° C.
The mark [11] stands for this setting: MO nanoparticles with amino lipid at RMO 0.3, Pluronic F-127, 25° C.
Where [12] appears, read: MO nanoparticles with amino lipid at RMO 0.4, Pluronic F-127, 25° C.
Where [13] appears, read: MO nanoparticles with amino lipid at RMO 0.5, Pluronic F-127, 25° C.

As for `CCCCCCCC/C=C\CCCCCCCC(=O)NCc1ccncc1` [Lipid-10, N-(pyridine-4-ylmethyl)oleamide], the “PDI of the formulations” value in series [1] (setting [6]) worked out at 0.16 ± 0.03; in series [1] (setting [7]), 0.21 ± 0.02; in series [1] (setting [8]) it was 0.2 ± 0.05; in series [1] (setting [9]), 0.19 ± 0.03; in series [1] (setting [10]), 0.39 ± 0.03; in series [1] (setting [11]), 0.22 ± 0.02. In addition, the “PDI of the formulations” value in series [1] (setting [12]) is 0.24 ± 0.03; in series [1] (setting [13]) it was 0.25 ± 0.04. For the same molecule, the “Particle Size in nm” value in series [1] (setting [6]) amounted to 217 ± 6 nm; in series [1] (setting [7]), 224 ± 3 nm; in series [1] (setting [8]) it was 259 ± 8 nm; in series [1] (setting [9]) it was 271 ± 4 nm; in series [1] (setting [10]), 250 ± 3 nm; in series [1] (setting [11]), 246 ± 4 nm. In addition, the “Particle Size in nm” value in series [1] (setting [12]) was 244 ± 6 nm; in series [1] (setting [13]), 265 ± 4 nm. Also, in series [2] (RMO 0.4, pH 4.0 to 7.5), the “Shift of H2 to Q2 transition at 37° C. compared to 25° C. (higher)” value was determined as 0.5 pH unit. In addition, in series [2] (RMO=0.4-0.5, 25° C.), the “pH at which Q2 is reached in the transition from H2 at pH 7.5” value was found to be 5.5 pH. In addition, the “pH resulting in liposome formation” value in series [2] (RMO=0.4-0.5, further decrease in pH) worked out at 4.0 pH. Also, in series [2] (pH 7, MO nanoparticles), the “RMO at which the transition from Q2 to H2 occurred” value is given as 0.4.
Consider `CCCCCCCC/C=C\CCCCCCCC(=O)NCc1ccccn1` [Lipid-11], for which the “PDI of the formulations” value stood at 0.23 ± 0.04 in series [1] (setting [6]); 0.18 ± 0.03 in series [1] (setting [7]); 0.20 ± 0.03 in series [1] (setting [8]); 0.23 ± 0.02 in series [1] (setting [9]); 0.28 ± 0.02 in series [1] (setting [10]); 0.20 ± 0.02 in series [1] (setting [11]). Besides, the “PDI of the formulations” value in series [1] (setting [12]) is 0.10 ± 0.02; in series [1] (setting [13]), 0.21 ± 0.03. In addition, the “Particle Size in nm” value is reported as 284 ± 2 nm in series [1] (setting [6]); 255 ± 4 nm in series [1] (setting [7]); 300 ± 7 nm in series [1] (setting [8]); 267 ± 4 nm in series [1] (setting [9]); 313 ± 4 nm in series [1] (setting [10]); 290 ± 4 nm in series [1] (setting [11]). For the same molecule, the “Particle Size in nm” value in series [1] (setting [12]) stood at 272 ± 5 nm; in series [1] (setting [13]), 300 ± 4 nm. For the same molecule, in series [2] (RMO=0.4, neutral pH, MO nanoparticles), the Phase observed result is on record as “L2 phase”. Also, in series [2] (RMO=0.4-0.5), the “pH of transition from L2 to Q2” value worked out at 3.0 pH.
With `CCCCCCCC/C=C\CCCCCCCC(=O)NCCN1CCOCC1` [Lipid-12], the “PDI of the formulations” value in series [1] (setting [6]) is 0.23 ± 0.03; in series [1] (setting [7]), 0.20 ± 0.05; in series [1] (setting [8]), 0.20 ± 0.05; in series [1] (setting [9]), 0.30 ± 0.03; in series [1] (setting [10]), 0.25 ± 0.03; in series [1] (setting [11]), 0.25 ± 0.05. The “PDI of the formulations” value is 0.40 ± 0.04 in series [1] (setting [12]) and 0.38 ± 0.03 in series [1] (setting [13]). The “Particle Size in nm” value in series [1] (setting [6]) is listed as 214 ± 4 nm; in series [1] (setting [7]), 218 ± 3 nm; in series [1] (setting [8]), 239 ± 3 nm; in series [1] (setting [9]), 250 ± 2 nm; in series [1] (setting [10]), 191 ± 8 nm; in series [1] (setting [11]), 206 ± 11 nm. The figures for the “Particle Size in nm” value in series [1] (setting [12]) and in series [1] (setting [13]) were 205 ± 6 nm and 137 ± 6 nm, respectively.
As for `CCCCCCCC/C=C\CCCCCCCC(=O)NCCN1CCCCC1` [Lipid-13, N-(2-(piperidin-1-yl)ethyl)oleamide], the “PDI of the formulations” value worked out at 0.25 ± 0.03 in series [1] (setting [6]); 0.20 ± 0.04 in series [1] (setting [7]); 0.23 ± 0.04 in series [1] (setting [8]); 0.22 ± 0.05 in series [1] (setting [9]); 0.19 ± 0.03 in series [1] (setting [10]); 0.23 ± 0.03 in series [1] (setting [11]). Also, the “PDI of the formulations” value in series [1] (setting [12]) is given as 0.15 ± 0.05; in series [1] (setting [13]), 0.18 ± 0.05. For the same molecule, the “Particle Size in nm” value in series [1] (setting [6]) is 180 ± 3 nm; in series [1] (setting [7]) it was 176 ± 4 nm; in series [1] (setting [8]) it was 168 ± 4 nm; in series [1] (setting [9]), 185 ± 6 nm; in series [1] (setting [10]) it was 180 ± 2 nm; in series [1] (setting [11]), 194 ± 5 nm. The “Particle Size in nm” value amounted to 200 ± 5 nm in series [1] (setting [12]) and 209 ± 5 nm in series [1] (setting [13]). The “pH difference within which the change from H2 to Q2 is observed” value in series [2] (RMO=0.2-0.3) was not above 0.5 pH unit. In addition, the “pH of H2→Q2 transition” value in series [2] (RMO=0.2-0.3) is 7.0 pH.
`CCc1c2c(nc3ccc(O)cc13)-c1cc3c(c(=O)n1C2)COC(=O)[C@]3(O)CC` [SN-38]: the Solubility in water in series [3] was 7 to 11 µg/mL. The “SN-38 released through dialysis membrane” value in series [4] is recorded as “More than 90%”. For the same molecule, in series [5] (844 μg/ml loading), the “Loading relative to solubility of SN-38 in water” value is recorded as approximately 100 times. Besides, the “Loading of SN-38” value in series [5] (highest loading achieved in MO/Lipid-10 nanoparticles) is 844 µg/mL.
